Source: patent US20080214508A1, “Methods of Administering Water-Soluble Prodrugs of Propofol” (MGI GP, INC., priority 2004, published 2008)
Several values for one entry are separate records, joined by “and”; a condition that tells them apart may be missing. Identical values can stand only once. Entries after “also recorded” stand apart in the source; their conditions may differ.

What was measured:
[1] = system: human subjects; conditions: intravenous infusions; cited from earlier work
[2] = system: Sprague-Dawley rats
Method: FIG. 2 illustrates the sedative/anesthetic effects of various doses of the experimental compound when administered via the intravenous route.
For comparison, an additional two animals received a subcutaneous injection of propofol (80 mg/kg) in its commercially available liquid emulsion formulation. For further comparison, the above-described pharmacological effects of subcutaneous administration of the tested prodrug were compared with those caused by an intravenous infusion: Under halothane anesthesia, young adult rats received femoral vein catheters which were exteriorized and attached to a liquid swivel via a protectant spring. About 20 minutes after catheterization, and after full behavioral recovery from halothane anesthesia, each animal was attached to an electronic infusion pump and was administered vehicle, or 5, 10, 20, 30, or 40 mg/kg of the test prodrug (n=2 per dose) in 1 ml total volume by gradual constant-rate intravenous infusion over 10 minutes. Behavioral rating as described above began immediately following the end of infusion.

[3] = Plasma propofol pharmacokinetics in Beagle dogs after intravenous, subcutaneous or rectal prodrug; format: in vivo
Method: Upon administration, the test prodrug is converted in the body into propofol, its pharmacologically active metabolite. The pharmacokinetic profile, i.e. the blood plasma concentration of propofol derived from the test prodrug, was assessed in a separate experiment. Three male Beagle dogs (8.7-10.9 kg) received intravenous, subcutaneous, or rectal doses of the prodrug (see Tab. 1, below). Blood samples were taken at pre-dose, 2 (only for intravenous and subcutaneous), 5, 15, 30 minutes, 1, 1.5, 2, 3, 4, 6, and 8 hrs after administration of the test prodrug. Blood samples were centrifuged to obtain plasma and stored frozen until analysis. The outcome of this experiment is depicted in the following Table I: […]

[4] = anesthetic induction doses; cited from earlier work
[5] = rats, intravenous infusion over 10 minutes, 5-40 mg/kg
[6] = Beagle dog 46, rectal, 16.8 mg/kg prodrug, first suppository expelled, second given, nominal dose used
[7] = Beagle dog 47, rectal, 15.7 mg/kg prodrug
[8] = Beagle dog 48, rectal, 18.4 mg/kg prodrug
[9] = Beagle dogs, i.v., 16 mg/kg prodrug, average of 3 dogs
[10] = Beagle dogs, i.v., 16 mg/kg prodrug, individual dogs 46, 47, 48, disodium salt, 16 mg/kg
[11] = Beagle dogs, rectal, 15.7-18.4 mg/kg prodrug, average of 3 dogs
[12] = Beagle dogs, subcut., 16 mg/kg prodrug, average of 3 dogs
[13] = Beagle dogs, subcut., 16 mg/kg prodrug, individual dogs 46, 47, 48, disodium salt, 16 mg/kg

CC(C)c1cccc(C(C)C)c1OCOP(=O)([O-])[O-].[Na+].[Na+] [O-phosphonooxymethyl propofol disodium salt]
potency of plasma propofol in suppressing EEG activity and causing a hypnotic effect, versus plasma propofol from infusions of propofol itself [1]: significantly more potent
duration of effects relative to subcutaneous administration [2, 5]: shorter duration compared to subcutaneous administration
onset of sedated behavior relative to subcutaneous injection [2, 5]: even more rapidly than after subcutaneous-injection
onset of sedated behavior after dosing ([2]; rats, single subcutaneous injection, 50-300 mg/kg): 5 to 10 min
duration of sedation ([2]; rats, subcutaneous, 50 mg/kg): 1 to 1.5 h
sedative effect compared to vehicle ([2]; rats, subcutaneous, 50 mg/kg): mild to moderate sedation
behavioral effect following sedation ([2]; rats, subcutaneous, 100, 200 and 300 mg/kg dose groups): loss of consciousness
duration of loss of consciousness ([2]; rats, subcutaneous, two highest dose groups (200 and 300 mg/kg)): more than two hours
time after administration until plateau effect is reached ([2]; subcutaneous administration): 10 to 15 min
duration for which plateau effect is maintained ([2]; subcutaneous administration, depending on dose): up to about thirty minutes to two hours or longer
AUCLast of plasma propofol [3, 6]: 471.4 ng·h/mL
Cmax of plasma propofol [3, 6]: 220 ng/mL
Tmax of plasma propofol [3, 6]: 60 min
AUCLast of plasma propofol [3, 7]: 204.5 ng·h/mL
Cmax of plasma propofol [3, 7]: 170 ng/mL
Tmax of plasma propofol [3, 7]: 15 min
AUCLast of plasma propofol [3, 8]: 46.7 ng·h/mL
Cmax of plasma propofol [3, 8]: 90 ng/mL
Tmax of plasma propofol [3, 8]: 15 min
AUCLast of plasma propofol [3, 9]: 1728 ± 256.0 ng·h/mL
Cmax of plasma propofol [3, 9]: 3840 ± 1190 ng/mL
Tmax of plasma propofol [3, 9]: 1.8 min
Tmax of plasma propofol ([3]; Beagle dogs, i.v., 16 mg/kg prodrug, individual dogs 46, 47, 48): 1.8 min
AUCLast of plasma propofol [3, 10]: 1776 ng·h/mL and 1956 ng·h/mL and 1451 ng·h/mL
Cmax of plasma propofol [3, 10]: 2570 ng/mL and 4930 ng/mL and 4010 ng/mL
AUCLast of plasma propofol [3, 11]: 240.9 ± 214.7 ng·h/mL
Cmax of plasma propofol [3, 11]: 160 ± 60 ng/mL
Tmax of plasma propofol [3, 11]: 30 ± 25.8 min
AUCLast of plasma propofol [3, 12]: 1322 ± 557.7 ng·h/mL
Cmax of plasma propofol [3, 12]: 390 ± 90 ng/mL
Tmax of plasma propofol [3, 12]: 60 ± 30 min
AUCLast of plasma propofol [3, 13]: 1781 ng·h/mL and 1484 ng·h/mL and 701.6 ng·h/mL
Cmax of plasma propofol [3, 13]: 460 ng/mL and 420 ng/mL and 290 ng/mL
Tmax of plasma propofol [3, 13]: 90 min and 60 min and 30 min

CC(C)c1cccc(C(C)C)c1O [propofol, 2,6-diisopropylphenol]
sedative effect ([2]; rats, subcutaneous, 80 mg/kg, commercially available liquid emulsion formulation): only very mild or no sedative effects; also recorded: none or only very mild sedation
patients with respiratory consequences, including reduction in tidal volume and apnea [4]: up to 83%
